# Measurements from article PMC6018602, “The virulence factor LecB varies in clinical isolates: consequences for ligand binding and drug discovery” (Chemical Science, 2016).
# Several values for one entry are separate records, joined by “and”; a condition that tells them apart may be missing. Equal entries are not always repeated. Where two headings read alike, the source gives them in different places.
# Experiments:
# LecBPA14 [1] = biological target: T1, LecBPA14 (Pseudomonas aeruginosa, UniProt A0A0H2ZE85); assay: biochemical; format: binding, P. aeruginosa PA14
# LecBPAO1 [2] = biological target: T2, LecBPAO1 (Pseudomonas aeruginosa, UniProt Q9HYN5); details: cited from earlier work; for N (LecBPAO1): ITC stoichiometry
# LecBPAO1 [3] = biological target: T2, LecBPAO1; assay: biochemical; format: binding, P. aeruginosa PAO1
# Method: (§1) To quantify the binding affinities of the carbohydrates we adapted the competitive binding assay for LecBPA14 (Fig. S5 ^†) previously described for LecBPAO1.[18]
# (§2) The competitive binding assay based on fluorescence polarization was performed as described previously for PAO1.[18] […] After addition of the reagents, the plate was incubated for 8–22 h at r.t. in a humidity chamber. […] The measured intensities were reduced by buffer values and fluorescence polarization was calculated. The data were analyzed using BMG Labtech MARS software and/or with Graphpad Prism and fitted according to the four parameter variable slope model. […] A minimum of three independent measurements of triplicates each was performed for every ligand.
# LecBPA14 [4] = biological target: T1, LecBPA14; assay: biochemical; format: binding, P. aeruginosa PA14; remark: listed apart in the source
# Method: as §1, §2
# LecBPAO1 [5] = biological target: T2, LecBPAO1; assay: biochemical; format: binding, P. aeruginosa PAO1; remark: listed apart in the source
# [6] = biological target: LecB from P. aeruginosa PA14 (Pseudomonas aeruginosa UCBPP-PA14); assay: crystal structure; native LecB_(PA14), hanging drop vapor diffusion at 19 °C, molecular replacement with the tetramer of PDB 1UZV, 1.70 Å
# [7] = biological target: LecB from P. aeruginosa PA14 (Pseudomonas aeruginosa UCBPP-PA14); assay: dynamic light scattering; 100 μM LecB in TBS/Ca (20 mM Tris, 137 mM NaCl, 2.6 mM KCl, pH 7.4, 1 mM CaCl2), 25 °C, Zetasizer Nano-ZS
# [8] = LecBPAO1 IC50, competitive binding assay, Fig. 3
# [9] = IC50 for LecBPAO1, competitive binding assay
# [10] = individual ITC titrations, Fig. S6, TBS supplemented with 1 mM CaCl2
# [11] = individual ITC titrations, Fig. S6, TBS supplemented with 1 mM CaCl2, protein and ligand concentrations vary
compound,measurement,setting,value
"CO[C@H]1O[C@H](CO)[C@@H](O)[C@H](O)[C@@H]1O [Compound 5, methyl α-D-mannoside]",-TΔS (LecBPA14),LecBPA14 [1],-3.47 ± 0.0789 kcal/mol
same,G,LecBPA14 [1],"-6,63E+03 cal/mol and -6,52E+03 cal/mol and -6,48E+03 cal/mol"
same,Ka,LecBPA14 [1],"7,18E+04 1/M and 6,20E+04 1/M and 5,54E+04 1/M"
same,N (LecBPA14),LecBPA14 [1],1.03 ± 0.07
same,s,LecBPA14 [1],"11,8 cal/molK and 11,3 cal/molK and 11,7 cal/molK"
same,ΔH (LecBPA14),LecBPA14 [1],-3.08 ± 0.0813 kcal/mol
same,N (LecBPAO1),LecBPAO1 [2],0.94
same,-TΔS (LecBPAO1),LecBPAO1 [2]; ITC,-1.41 kcal/mol
same,ΔH (LecBPAO1),LecBPAO1 [2]; ITC,-4.25 kcal/mol
"CC(=O)NC1C(OC2C(O)C(O)OC(CO)C2O)OC(CO)C(OC2OC(C)C(O)C(O)C2O)C1OC1OC(CO)C(O)C(O)C1OC1OC(C)C(O)C(O)C1O (stereo not shown) [Compound 16, Lewis^b]",IC50,LecBPAO1 [3]; [8],690 ± 40 nM
same,IC50,LecBPA14 [4],150 ± 10 nM
"CO[C@@H]1OC[C@@H](O)[C@@H](O)[C@@H]1O [Compound 6, methyl β-D-arabinoside]",IC50,LecBPA14 [4],1900 ± 400 nM
"C[C@@H]1OC[C@@H](O)[C@H](O)[C@@H]1O [Compound 8, 1-deoxy L-fucose]",IC50,LecBPA14 [4],610 ± 100 nM
"OCC1OC(OC2C(O)C(O)OC(CO)C2O)C(O)C(O)C1O [Compound 11, α-1,3-D-mannosyl D-mannose]",IC50,LecBPAO1 [3]; [8],63000 ± 3000 nM
same,IC50,LecBPA14 [4],26000 ± 6000 nM
"OC1[C@H](O)COC[C@H]1O [Compound 7, 1-deoxy D-arabinose]",IC50,LecBPA14 [4],6800 ± 1200 nM
"CC(=O)NC1C(OC2C(O)C(O)OC(CO)C2O)OC(CO)C(OC2OC(CO)C(O)C(O)C2OC2OC(C)C(O)C(O)C2O)C1O (stereo not shown) [Compound 15, H type II]",IC50,LecBPAO1 [3]; [9],930 nM
same,N (LecBPA14),"LecBPA14 [1]; ITC stoichiometry, 25 °C",0.98 ± 0.03
same,-TΔS (LecBPA14),"LecBPA14 [1]; ITC, 25 °C",-2.75 ± 0.263 kcal/mol
same,ΔG (LecBPA14),"LecBPA14 [1]; ITC, 25 °C",-9.18 ± 0.22 kcal/mol
same,ΔH (LecBPA14),"LecBPA14 [1]; ITC, 25 °C",-6.43 ± 0.454 kcal/mol
same,Kd,"LecBPA14 [1]; Kd (LecBPA14), ITC, 25 °C",199 nM
same,Kd,LecBPAO1 [5],605 ± 140 nM
same,N (LecBPAO1),"LecBPAO1 [5]; ITC stoichiometry, 25 °C",1.01 ± 0.07
same,-TΔS (LecBPAO1),"LecBPAO1 [5]; ITC, 25 °C",-0.837 ± 0.096 kcal/mol
same,ΔG (LecBPAO1),"LecBPAO1 [5]; ITC, 25 °C",-8.48 ± 0.12 kcal/mol
same,ΔH (LecBPAO1),"LecBPAO1 [5]; ITC, 25 °C",-7.67 ± 0.096 kcal/mol
same,IC50,LecBPA14 [4],180 nM
CC(=O)N[C@H]1[C@H](O[C@H]2[C@H](O)[C@@H](NC(C)=O)C(O)O[C@@H]2CO)O[C@H](CO)[C@@H](O[C@@H]2O[C@H](CO[C@H]3O[C@H](CO)[C@@H](O)[C@H](O)[C@@H]3O[C@@H]3O[C@H](CO)[C@@H](O[C@@H]4O[C@H](CO)[C@H](O)[C@H](O[C@@H]5O[C@H](CO)[C@@H](O[C@@H]6O[C@H](CO)[C@H](O)[C@H](O)[C@H]6O[C@@H]6O[C@@H](C)[C@@H](O)[C@@H](O)[C@@H]6O)[C@H](O)[C@H]5NC(C)=O)[C@H]4O)[C@H](O)[C@H]3NC(C)=O)[C@@H](O)[C@H](O[C@H]3O[C@H](CO)[C@@H](O)[C@H](O)[C@@H]3O[C@@H]3O[C@H](CO)[C@@H](O[C@@H]4O[C@H](CO)[C@H](O)[C@H](O[C@@H]5O[C@H](CO)[C@@H](O[C@@H]6O[C@H](CO)[C@H](O)[C@H](O)[C@H]6O[C@@H]6O[C@@H](C)[C@@H](O)[C@@H](O)[C@@H]6O)[C@H](O)[C@H]5NC(C)=O)[C@H]4O)[C@H](O)[C@H]3NC(C)=O)[C@@H]2O)[C@@H]1O (stereo partly shown) [Compound 23],IC50,LecBPAO1 [3]; [9],114 nM
same,IC50,LecBPA14 [4],35 nM
"OCC1OC(OC2C(O)OC(CO)C(O)C2O)C(O)C(O)C1O [Compound 10, α-1,2-D-mannosyl D-mannose]",IC50,LecBPAO1 [3]; [8],85000 ± 2000 nM
same,IC50,LecBPA14 [4],26000 ± 5000 nM
"CC(=O)NC1C(OC2C(O)C(O)OC(CO)C2O)OC(CO)C(O)C1OC1OC(CO)C(O)C(O)C1OC1OC(C)C(O)C(O)C1O (stereo not shown) [Compound 14, H type I]",IC50,LecBPAO1 [3]; [8],2300 ± 100 nM
same,IC50,LecBPA14 [4],910 ± 100 nM
"CC(=O)NC1C(OC2C(O)C(O)OC(CO)C2O)OC(CO)C(OC2OC(C)C(O)C(O)C2O)C1OC1OC(CO)C(O)C(O)C1O (stereo not shown) [Compound 12, Lewis^a]",IC50,LecBPAO1 [3]; [9],166 nM
same,IC50,LecBPAO1 [3]; [8],170 ± 10 nM
same,N (LecBPA14),"LecBPA14 [1]; ITC stoichiometry, 25 °C",1.05 ± 0.11
same,-TΔS (LecBPA14),"LecBPA14 [1]; ITC, 25 °C",-0.813 ± 0.509 kcal/mol
same,ΔG (LecBPA14),"LecBPA14 [1]; ITC, 25 °C",-9.78 ± 0.196 kcal/mol
same,ΔH (LecBPA14),"LecBPA14 [1]; ITC, 25 °C",-8.99 ± 0.602 kcal/mol
same,Kd,"LecBPA14 [1]; Kd (LecBPA14), ITC, 25 °C",70 nM
same,Kd,"LecBPA14 [1]; Kd, individual ITC titrations, Fig. S6, TBS supplemented with 1 mM CaCl2",62.1 nM and 96.2 nM and 50.3 nM
same,G,LecBPA14 [1]; [10],"-9,83E+03 cal/mol and -9,57E+03 cal/mol and -9,96E+03 cal/mol"
same,H,LecBPA14 [1]; [10],-8.521 kcal/mol and -8.769 kcal/mol and -9.667 kcal/mol
same,s,LecBPA14 [1]; [10],"4,39 cal/molK and 2,69 cal/molK and 0,969 cal/molK"
same,Ka,LecBPA14 [1]; [11],"1,61E+07 1/M and 1,04E+07 1/M and 1,99E+07 1/M"
same,N (LecBPAO1),LecBPAO1 [2],1.08
same,-TΔS (LecBPAO1),LecBPAO1 [2]; ITC,-0.741 kcal/mol
same,ΔG (LecBPAO1),LecBPAO1 [2]; ITC,-9.11 kcal/mol
same,ΔH (LecBPAO1),LecBPAO1 [2]; ITC,-8.34 kcal/mol
same,Kd,"LecBPAO1 [2]; read-out: Kd (LecBPAO1), ITC",212 nM
same,IC50,LecBPA14 [4],78 nM
"CO[C@@H]1O[C@@H](C)[C@@H](O)[C@@H](O)[C@@H]1O [Compound 2, methyl α-L-fucoside]",N (LecBPA14),"LecBPA14 [1]; ITC stoichiometry, 25 °C",0.99 ± 0.04
same,-TΔS (LecBPA14),"LecBPA14 [1]; ITC, 25 °C",-1.5 ± 0.201 kcal/mol
same,ΔH (LecBPA14),"LecBPA14 [1]; ITC, 25 °C",-7.65 ± 0.227 kcal/mol
same,G,LecBPA14 [1]; [10],"-9,15E+03 cal/mol and -9,22E+03 cal/mol and -9,24E+03 cal/mol and -8,96E+03 cal/mol"
same,H,LecBPA14 [1]; [10],-7.957 kcal/mol and -7.593 kcal/mol and -7.612 kcal/mol and -7.414 kcal/mol
same,s,LecBPA14 [1]; [10],"5,45 cal/molK and 5,47 cal/molK and 5,18 cal/molK and 4,01 cal/molK"
same,Ka,LecBPA14 [1]; [11],"3,69E+06 1/M"
same,-TΔS (LecBPAO1),LecBPAO1 [2]; ITC,1.17 kcal/mol
same,ΔH (LecBPAO1),LecBPAO1 [2]; ITC,-9.87 kcal/mol
LecB from P. aeruginosa PA14 (natural protein),stoichiometry N,[6],4
same,stoichiometry N,[7],4
"OC[C@H]1OC[C@@H](O)[C@@H](O)[C@@H]1O [Compound 9, 1-deoxy D-mannose]",IC50,LecBPA14 [4],56000 ± 16000 nM
